# Measurements published in article PMC10180197, “Novel Pyrimidine Derivatives as Antioxidant and Anticancer Agents: Design, Synthesis and Molecular Modeling Studies” (Molecules, 2023).
# Legend:
# [1] = Experimental determination of lipophilicity as RM values (RP-TLC); type: physicochemical; conditions: methanol/water 70/30 v/v, 24 °C, SD < 10%
# Description: Lipophilicity is an important physicochemical parameter of a drug candidate, linking solubility and membrane permeability with the ADMET (absorption, distribution, metabolism, elimination and toxicity) properties and the overall suitability of a molecule. Reversed-phase thin-layer chromatography was the method used to experimentally determine the lipophilic character of the synthesized compounds as RM values (Table 2). Lipophilicity was also theoretically calculated as clog P values using the Bio-Loom program of BioByte Corp (http://www.biobyte.com/, (accessed on 1 March 2023)). An attempt was made to correlate the experimental RM values with the theoretically calculated clog P values (Table 2). […] This disagreement could be attributed to several factors, e.g., different solvation, silanophilic interactions and hydrogen bonding.
# Lipophilicity as RM values was determined through reversed-phase TLC (RP-TLC) on silica gel plates impregnated with 5% v/v liquid paraffin in light petroleum ether. Methanol/water mixture (70/30, v/v) was used as mobile phase. Closed chromatography tanks saturated with the mobile phase at 24 °C were used for the development of the plates while the spots were detected under UV light. For the determination of RM values, five individual measurements of Rf values were recorded, and the RM values were derived from the following Equation (1). (1) RM=log1/Rf−1
# [2] = Reducing activity of the stable radical DPPH
# Description: All the synthesized compounds were studied for their ability to interact with the stable free 2,2-diphenyl-1-picrylhydrazyl radical (DPPH) at a concentration of 100 μM after 20 min and 60 min (Table 4). This assay is based on the reduction of DPPH by transferring one electron from the antioxidant.
# In vitro study was performed as reported previously by our group. In this experiment, 20 μL of the tested compound (from the stock solution), 980 μL EtOH and 1 mL ethanolic solution of DPPH (100 μM) were added in a testing tube in a final volume of 2 mL. The free radical scavenging ability was evaluated by recording the change of absorbance at 517 nm, produced by the reduction of DPPH, after 20 and 60 min at room temperature.
RM [1],melting point [°C],SMILES,RA % 100 μM 20 min [2],RA % 100 μM 60 min [2]
−0.21,68 to 70,"O=C(/C=C/c1ccc(Cl)cc1Cl)c1ccccc1 [Compound 1g, (E)-3-(2,4-dichlorophenyl)-1-phenylprop-2-en-1-one]",2%,8%
−0.05,,"O=C(/C=C/c1ccc(Cl)cc1Cl)c1ccc(Cl)cc1 [Compound 1h, (E)-1-(4-chlorophenyl)-3-(2,4-dichlorophenyl)prop-2-en-1-one]",no,no
−0.46,,"O=C(/C=C/c1cccs1)c1ccc(Cl)cc1 [Compound 1d, (E)-1-(4-chlorophenyl)-3-(thiophen-2-yl)prop-2-en-1-one]",no,no
−0.57,,"O=C(/C=C/c1ccccc1)c1ccccc1 [Compound 1a, (E)-1,3-diphenylprop-2-en-1-one]",22%,no
−0.50,,"O=C(/C=C/c1ccc(Cl)cc1)c1ccccc1 [Compound 1e, (E)-3-(4-chlorophenyl)-1-phenylprop-2-en-1-one]",no,no
−0.24,160 to 162,"O=C(/C=C/c1ccc(Cl)cc1)c1ccc(Cl)cc1 [Compound 1f, (E)-1,3-bis(4-chlorophenyl)prop-2-en-1-one]",no,no
−0.50,,"O=C(/C=C/c1ccccc1)c1ccc(Cl)cc1 [Compound 1b, (E)-1-(4-chlorophenyl)-3-phenylprop-2-en-1-one]",no,4%

# More lines, now with the values behind:
SMILES,RM [1],melting point [°C],RA % 100 μM 20 min [2],RA % 100 μM 60 min [2]
"O=c1[nH]c(=S)[nH]c2nc(-c3ccc(Cl)cc3)cc(-c3ccc(Cl)cc3)c12 [Compound 2f, 5,7-bis(4-chlorophenyl)-2-thioxo-2,3-dihydropyrido [2,3-d]pyrimidin-4(1H)-one]",−0.91,> 300,no,no
"O=c1[nH]c(=S)[nH]c2nc(-c3ccccc3)cc(-c3ccc(Cl)cc3)c12 [Compound 2e, 5-(4-chlorophenyl)-7-phenyl-2-thioxo-2,3-dihydropyrido [2,3-d]pyrimidin-4(1H)-one]",−0.87,> 300,24%,42%
"O=c1[nH]c(=S)[nH]c2nc(-c3ccccc3)cc(-c3cccs3)c12 [Compound 2c, 7-phenyl-5-(thiophen-2-yl)-2-thioxo-2,3-dihydropyrido [2,3-d]pyrimidin-4(1H)-one]",−0.83,260 to 262,14%,10%
"O=c1[nH]c(=S)[nH]c2nc(-c3ccc(Cl)cc3)cc(-c3ccccc3)c12 [Compound 2b, 7-(4-chlorophenyl)-5-phenyl-2-thioxo-2,3-dihydropyrido [2,3-d]pyrimidin-4(1H)-one]",−0.87,> 300,no,1%
"O=c1[nH]c(=S)[nH]c2nc(-c3ccccc3)cc(-c3ccccc3)c12 [Compound 2a, 5,7-diphenyl-2-thioxo-2,3-dihydropyrido [2,3-d]pyrimidin-4(1H)-one]",−0.95,> 300,29%,56%
"O=c1[nH]c(=S)[nH]c2nc(-c3ccccc3)cc(-c3ccc(Cl)cc3Cl)c12 [Compound 2g, 5-(2,4-dichlorophenyl)-7-phenyl-2-thioxo-2,3-dihydropyrido [2,3-d]pyrimidin-4(1H)-one]",−0.60,> 300,1%,no
"O=c1[nH]c(=S)[nH]c2nc(-c3ccc(Cl)cc3)cc(-c3ccc(Cl)cc3Cl)c12 [Compound 2h, 7-(4-chlorophenyl)-5-(2,4-dichlorophenyl)-2-thioxo-2,3-dihydropyrido [2,3-d]pyrimidin-4(1H)-one]",−0.48,274 to 276,no,no
"O=c1[nH]c(=S)[nH]c2nc(-c3ccc(Cl)cc3)cc(-c3cccs3)c12 [Compound 2d, 7-(4-chlorophenyl)-5-(thiophen-2-yl)-2-thioxo-2,3-dihydropyrido [2,3-d]pyrimidin-4(1H)-one]",−0.80,> 300,no,no
